Measured values published in PubChem BioAssay AID248 (DTP/NCI, 2004).
Where “and” joins values, the source holds several entries; their conditions need not be identical. Equal entries are not always repeated. Inconclusive results and toxic doses are left out. Cut-off read from the data, not from the text of the source: active = T/C of 150% or more; inactive = T/C below 125%.

System: L1210 leukemia ip in BDF1 mice, survival T/C
Experiment: NCI In Vivo Anticancer Drug Screen. Data for tumor model L1210 Leukemia (intraperitoneal) in B6D2F1 (BDF1) mice
Conditions: endpoint: mean survival time, higher = longer survival
Outline: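 In this screen, tumor-bearing mice given compound are compared to those given vehicle, and their survival values are reported as a treated-to-control quotient.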

[1] = dose: 100.0 mg/kg/injection, schedule: Q04DX003 (ip), vehicle: saline
[2] = dose: 200.0 mg/kg/injection, schedule: Q04DX003 (ip), vehicle: saline
[3] = dose: 75.0 mg/kg/injection, schedule: Q01DX001 (ip), vehicle: saline
[4] = dose: 100.0 mg/kg/injection, schedule: Q01DX009 (ip), vehicle: Klucel (hydroxypropylcellulose) (HPC)
[5] = dose: 100.0 mg/kg/injection, schedule: Q04DX003 (ip), vehicle: Klucel (hydroxypropylcellulose) (HPC)
[6] = dose: 200.0 mg/kg/injection, schedule: Q01DX009 (ip), vehicle: Klucel (hydroxypropylcellulose) (HPC)
[7] = dose: 200.0 mg/kg/injection, schedule: Q04DX003 (ip), vehicle: Klucel (hydroxypropylcellulose) (HPC)
[8] = dose: 400.0 mg/kg/injection, schedule: Q01DX009 (ip), vehicle: Klucel (hydroxypropylcellulose) (HPC)
[9] = dose: 400.0 mg/kg/injection, schedule: Q04DX003 (ip), vehicle: Klucel (hydroxypropylcellulose) (HPC)
[10] = dose: 50.0 mg/kg/injection, schedule: Q01DX009 (ip), vehicle: saline with Tween-80
[11] = dose: 100.0 mg/kg/injection, schedule: Q01DX009 (ip), vehicle: saline with Tween-80
[12] = dose: 200.0 mg/kg/injection, schedule: Q01DX009 (ip), vehicle: saline with Tween-80
[13] = dose: 100.0 mg/kg/injection, schedule: Q04DX002 (ip), vehicle: Klucel (hydroxypropylcellulose) (HPC)

Measured: T/C

O=[N+]([O-])c1ccc(-c2nn[nH]n2)cc1
inactive: dose: 100.0 mg/kg/injection, schedule: Q01DX001 (ip), vehicle: saline 92 % of control | [1] 103 % of control | dose: 200.0 mg/kg/injection, schedule: Q01DX001 (ip), vehicle: saline 103 % of control | [2] 93 % of control | dose: 264.0 mg/kg/injection, schedule: Q04DX003 (ip), vehicle: acetone 96 % of control | dose: 264.0 mg/kg/injection, schedule: Q04DX003 (ip), vehicle: saline with Tween-80 106 % of control | dose: 400.0 mg/kg/injection, schedule: Q01DX001 (ip), vehicle: saline 105 % of control | dose: 400.0 mg/kg/injection, schedule: Q04DX003 (ip), vehicle: acetone 102 % of control

O=c1[nH]nc(-c2ccncc2)s1
inactive: dose: 20.0 mg/kg/injection, schedule: Q04DX003 (ip), vehicle: saline 101 % of control | dose: 40.0 mg/kg/injection, schedule: Q04DX003 (ip), vehicle: saline 96 % of control | [3] 94 % of control | dose: 75.0 mg/kg/injection, schedule: Q04DX003 (ip), vehicle: saline 96 % of control | [1] 98 % of control

Nc1cc(C(=O)Nc2ccc(C3=NCCN3)cc2)cc(C(=O)Nc2ccc(C3=NCCN3)cc2)c1
active: dose: 31.0 mg/kg/injection, schedule: Q01DX Z (ip), vehicle: carboxymethylcellulose (CMC) 168 % of control | dose: 32.0 mg/kg/injection, schedule: Q01DX010 (sc), vehicle: saline 159 % of control | dose: 62.0 mg/kg/injection, schedule: Q01DX Z (ip), vehicle: carboxymethylcellulose (CMC) 197 % of control | dose: 64.0 mg/kg/injection, schedule: Q01DX010 (sc), vehicle: saline 179 % of control | dose: 64.0 mg/kg/injection, schedule: Q01DX Z (ip), vehicle: saline 249 % of control | dose: 125.0 mg/kg/injection, schedule: Q01DX Z (ip), vehicle: carboxymethylcellulose (CMC) 155 % of control | dose: 128.0 mg/kg/injection, schedule: Q01DX010 (sc), vehicle: saline 186 % of control | dose: 128.0 mg/kg/injection, schedule: Q01DX Z (ip), vehicle: saline 212 % of control
inactive: dose: 4.0 mg/kg/injection, schedule: Q01DX Z (ip), vehicle: saline 113 % of control | dose: 8.0 mg/kg/injection, schedule: Q01DX004 (im), vehicle: olive oil, sesame oil, peanut oil 95 % of control | dose: 8.0 mg/kg/injection, schedule: Q01DX Z (ip), vehicle: saline 107 % of control | dose: 16.0 mg/kg/injection, schedule: Q01DX004 (im), vehicle: olive oil, sesame oil, peanut oil 95 % of control | dose: 16.0 mg/kg/injection, schedule: Q01DX Z (ip), vehicle: saline 123 % of control | dose: 32.0 mg/kg/injection, schedule: Q01DX004 (im), vehicle: olive oil, sesame oil, peanut oil 109 % of control | dose: 62.5 mg/kg/injection, schedule: Q01DX010 (oral), vehicle: saline 115 % of control | dose: 64.0 mg/kg/injection, schedule: Q01DX004 (im), vehicle: olive oil, sesame oil, peanut oil 114 % of control | dose: 125.0 mg/kg/injection, schedule: Q01DX010 (oral), vehicle: saline 87 % of control | dose: 250.0 mg/kg/injection, schedule: Q01DX010 (oral), vehicle: saline 88 % of control | dose: 250.0 mg/kg/injection, schedule: Q01DX Z (ip), vehicle: carboxymethylcellulose (CMC) 117 % of control | dose: 500.0 mg/kg/injection, schedule: Q01DX010 (oral), vehicle: saline 117 % of control | dose: 1000.0 mg/kg/injection, schedule: Q01DX010 (oral), vehicle: saline 115 % of control

O=C(CCN1CCC2CCC(C2)C1)c1ccccc1C(F)(F)F (stereo not drawn)
inactive: dose: 50.0 mg/kg/injection, schedule: Q01DX001 (ip), vehicle: carboxymethylcellulose (CMC) 101 % of control

O=C(c1ccccc1)C1C(C(=O)c2ccccc2)N1Cc1ccccc1 (stereo not drawn)
inactive: [4] 100 % of control | [5] 96 % of control and 93 % of control | [6] 101 % of control | [7] 96 % of control and 91 % of control | [8] 97 % of control | [9] 93 % of control and 100 % of control

O=[N+]([O-])c1ccccc1NC1OC(CO)C(O)C1O (stereo not drawn)
inactive: dose: 100.0 mg/kg/injection, schedule: Q04DX002 (ip), vehicle: saline with Tween-80 102 % of control | dose: 200.0 mg/kg/injection, schedule: Q04DX002 (ip), vehicle: saline with Tween-80 98 % of control | dose: 400.0 mg/kg/injection, schedule: Q04DX002 (ip), vehicle: saline with Tween-80 102 % of control

N#CC(Nc1ccccc1)c1ccc(Cl)cc1 (stereo not drawn)
inactive: [10] 101 % of control | [11] 97 % of control | [12] 94 % of control

CC(=O)N1Cc2ccc(C=O)n2Cc2cc3c(cc21)OCO3
inactive: dose: 25.0 mg/kg/injection, schedule: Q04DX002 (ip), vehicle: Klucel (hydroxypropylcellulose) (HPC) 96 % of control | dose: 50.0 mg/kg/injection, schedule: Q04DX002 (ip), vehicle: Klucel (hydroxypropylcellulose) (HPC) 104 % of control | [13] 110 % of control

COc1cc(C)c(Cl)c(C)c1C(C)=O
inactive: [4] 101 % of control | [5] 95 % of control | [6] 100 % of control | [7] 101 % of control | [8] 101 % of control | [9] 97 % of control

C/C(=C\CC1(C)C(=O)CCC2(C)C1CCCC21OCCO1)Sc1ccc(Cl)cc1 (stereo not drawn)
inactive: [13] 89 % of control | dose: 200.0 mg/kg/injection, schedule: Q04DX002 (ip), vehicle: Klucel (hydroxypropylcellulose) (HPC) 95 % of control | dose: 400.0 mg/kg/injection, schedule: Q04DX002 (ip), vehicle: Klucel (hydroxypropylcellulose) (HPC) 110 % of control

CCCCCCCc1cc(O)c2c3c(c(=O)oc2c1)CCC(C)C3 (stereo not drawn)
inactive: dose: 75.0 mg/kg/injection, schedule: Q04DX003 (ip), vehicle: Klucel (hydroxypropylcellulose) (HPC) 93 % of control | dose: 150.0 mg/kg/injection, schedule: Q04DX003 (ip), vehicle: Klucel (hydroxypropylcellulose) (HPC) 92 % of control | dose: 300.0 mg/kg/injection, schedule: Q04DX003 (ip), vehicle: Klucel (hydroxypropylcellulose) (HPC) 93 % of control

Clc1ccc2c(Cl)ccnc2c1
inactive: dose: 100.0 mg/kg/injection, schedule: Q04DX002 (ip), vehicle: gum acacia 91 % of control | dose: 200.0 mg/kg/injection, schedule: Q04DX002 (ip), vehicle: gum acacia 95 % of control

Cc1c2cnccc2c(C)c2c1c1ccccc1n2CCNCCO
inactive: dose: 6.25 mg/kg/injection, schedule: Q01DX009 (ip), vehicle: saline with Tween-80 97 % of control | dose: 12.5 mg/kg/injection, schedule: Q01DX009 (ip), vehicle: saline with Tween-80 122 % of control | dose: 25.0 mg/kg/injection, schedule: Q01DX009 (ip), vehicle: saline with Tween-80 113 % of control | dose: 100.0 mg/kg/injection, schedule: Q04DX003 (ip), vehicle: saline sonified 111 % of control | dose: 200.0 mg/kg/injection, schedule: Q04DX003 (ip), vehicle: saline sonified 103 % of control

CN1CCC23CCCCC2C1Cc1ccc(O)cc13 (stereo not drawn)
inactive: [3] 95 % of control

CC1(C)COC(C2CC(=O)c3ccccc3C2)=N1 (stereo not drawn)
inactive: [10] 94 % of control | dose: 50.0 mg/kg/injection, schedule: Q04DX003 (ip), vehicle: saline 97 % of control | [11] 107 % of control | [1] 92 % of control | [12] 100 % of control | [2] 99 % of control | dose: 400.0 mg/kg/injection, schedule: Q01DX009 (ip), vehicle: saline with Tween-80 107 % of control | dose: 400.0 mg/kg/injection, schedule: Q04DX003 (ip), vehicle: saline 91 % of control
